In patent US20130178453A1, “Cannabinoid Agonists” (priority 2010, published 2013):

Columns and labels:
[1] = target: T1, hCB2 (Homo sapiens, UniProt P34972); assay: hCB2 GTPγS agonist assay (HEK-293 membranes); format: biochemical
Procedure: (§1) cDNA expression clones for human CB 1 (hCB1, Genbank Accession No. AY225225) and human CB2 (hCB2, Genbank Accession No. AY242132) expressed in vector pcDNA3.1+ were purchased from UMR cDNA Resource Center, Rolla, Mo. (Clone ID CNR01L000 for hCB1; CNR0200000 for hCB2).
(§2) Membranes were isolated from transfected cells as follows. Monolayers of cultured cells were washed twice with phosphate-buffered saline (PBS). […] Homogenates were centrifuged 10 minutes at 1000×g at 4° C. The supernatant was collected and was centrifuged for 1 hour at 40,000×g. The supernatant was then decanted and the resulting pellet was re-suspended in 20 mM HEPES, pH 7.4, 5 mM MgCl2, 1 mM EDTA, 10% sucrose with complete cocktail protease inhibitors. Protein concentration of membrane suspensions were measured by Bradford Protein Assay using bovine serum albumin as the standard (BioRad catalog #500-0006). Protein concentrations of membrane suspensions were adjusted with the final buffer in the range of 5 to 10 mg/mL and were stored at −80° C. until further use.
^35S GTPγS binding assays were performed by incubating recombinant cell membranes prepared above (5 μg) in the presence of scintillation proximity assay beads (SPA beads, Catalog #RPNQ0252 GE Healthcare, Buckinghamshire, England) in GTPγS binding buffer [50 mM HEPES (pH 7.4), 100 mM NaCl, 5 mM MgCl2, 0.001% saponin (Sigma catalog #S4521)] supplemented with 20 uM GDP (Sigma catalog #G7127) in the presence or absence of test compound. The reaction was carried out in 96-well microplates with 0.1 nM [^35S]GTPγS (specific activity=1250 Ci/mmol; Perkin Elmer catalog #NEG030X250UC) in a final volume of 100 μL. After a 90 min room temperature incubation, the reaction was analyzed using a scintillation counter (Perkin Elmer Microbeta instrument). Binding data were analyzed using GraphPad Prism.

[2] = target: T2, hCB1 (Homo sapiens, UniProt P21554); assay: hCB1 radioligand binding assay ([3H]-CP 55,940 displacement); conditions: hCB1 IC50 (CP displ, nM, HEK), HEK membranes
Excerpt: as §1
Stable, HEK-293-derived cell lines that recombinantly express hCB1 or hCB2 were established. In brief, the clone hCB1 (CNR1L) or hCB2 (CNR2) was transfected into human embryonic kidney cells (HEK-293) using Lipofectamine 2000 (Gibco, Cat#11668-019) according to the manufacturer's protocol. Transfected clones were isolated by single colony purification and clones were screened for receptor expression using a whole cell, ^3H—CP 55,940 radioligand binding assay. HEK-293 stable cells were maintained in Dulbecco's modified Eagles medium (DMEM) containing 10% fetal bovine serum, 2 mM L-glutamine and 0.5 mg/mL G-418.
Membranes were isolated from transfected cells as follows. Monolayers of cultured cells were washed twice with phosphate-buffered saline (PBS). Cells were scraped into 20 mM HEPES, pH 7.4, 10 mM EDTA containing complete cocktail protease inhibitors (Roche, Catalog #11 697 498 001), and were homogenized by an electric-powered mechanical probe homogenizer (Omni GLH; probe G7-195S) for 40 seconds at 7000 rpm. Homogenates were centrifuged 10 minutes at 1000×g at 4° C. The supernatant was collected and was centrifuged for 1 hour at 40,000×g. The supernatant was then decanted and the resulting pellet was re-suspended in 20 mM HEPES, pH 7.4, 5 mM MgCl2, 1 mM EDTA, 10% sucrose with complete cocktail protease inhibitors. Protein concentration of membrane suspensions were measured by Bradford Protein Assay using bovine serum albumin as the standard (BioRad catalog #500-0006). Protein concentrations of membrane suspensions were adjusted with the final buffer in the range of 5 to 10 mg/mL and were stored at −80° C. until further use.
Radioligand binding assays were performed by incubating membranes (2-10 μg protein) prepared from HEK-293 cells expressing recombinant human cannabinoid receptors, CB 1 or CB2, at room temperature with 0.5 nM cannabinoid receptor agonist, [^3H]-CP 55,940 (Perkin Elmer, catalog #NET 1051) in 0.2 mL of binding buffer (50 mM Tris-HCl, pH 7.5, 5 mM MgCl2, 2.5 mM EDTA) and 0.1% fatty acid free bovine serum albumin (Sigma Cat. #A0821) for 90 minutes. A rapid filtration technique using Millipore FB filter plates (Catalog #MADVNOB) and filtration apparatus (Millipore system Catalog MAVM0960R) with vacuum aspiration was used to harvest and rinse labeled membranes (8 times with 0.2 mL of chilled binding buffer). The radioactivity bound to the filters was counted with 0.05 mL of liquid scintillant (UltraGold MV, PerkinElmer catalog #6013159) in a scintillation counter (Perkin Elmer Microbeta instrument). Nonspecific binding was determined in the presence of unlabeled 1 μM CP 55,940 (Sigma Aldrich, catalog #C1112). Binding data were analyzed using GraphPad Prism (GraphPad Software, Inc. San Diego, Calif.).

[3] = target: T2, hCB1; assay: hCB1 cAMP agonist assay (HEK-293 cells); format: cell-based
[4] = target: T1, hCB2; assay: hCB2 cAMP agonist assay (HEK-293 cells); format: cell-based
Procedure: as §1
cAMP assays were performed in HEK-293 cells stably expressing human CB 1 or CB2 receptors. […] Cells suspensions were centrifuged and the cells were washed once with PBS, were centrifuged again, and the cells were resuspended in HBSS (Hank's Balanced Salt Solution, Cellgro, Cat #21-022-CV) solution containing 10 mM HEPES and 0.1% fatty acid free BSA (Sigma, Cat #A0281). Cell suspensions were prepared at 1,500,000 cells per mL. Stock solutions of test substances (10 mM) in DMSO were diluted to 1 mM using 30% DMSO as diluent. Test substances of solutions (1 mM) were further diluted down to 3× of final assay concentrations in the above HBSS buffer containing 0.1% BSA in the presence of 90 uM forskolin (Sigma Cat#F6886). To perform the assay, 20 μL of cell suspension (1,500,000 cells/mL) were added to each well in 96 well plate and treated with 10 μL test substance solution diluted as described above. Cells and compounds were incubated at 37° C. for 30 minutes. Cells were lysed and cAMP concentration was measured using DiscoveRx-XS+ cAMP assay kit (DiscoveRx Corporation Ltd., Fremont, Calif., USA, Cat #90-0075-03), following the manufacturer's protocol. GraphPad Prism software was used to calculate EC50 values using sigmoidal dose response curve fitting. The maximal amount of cAMP produced by forskolin was defined as 100%.

[5] = target: T1, hCB2; assay: hCB2 radioligand binding assay ([3H]-CP 55,940 displacement); conditions: hCB2 IC50 (CP displ, nM, HEK), HEK membranes
Procedure: as §1, §2
A rapid filtration technique using Millipore FB filter plates (Catalog #MADVNOB) and filtration apparatus (Millipore system Catalog MAVM0960R) with vacuum aspiration was used to harvest and rinse labeled membranes (8 times with 0.2 mL of chilled binding buffer). […] Binding data were analyzed using GraphPad Prism (GraphPad Software, Inc. San Diego, Calif.).

[6] = GTPγS agonist, HEK membranes, read-out: hCB2 EC50 (GTPyS ag, nM, HEK)
[7] = cAMP agonist, HEK, 96-well, read-out: hCB2 EC50 (cAMP ag, nM, HEK (96-well))

T1 sequence (P34972 whole entry): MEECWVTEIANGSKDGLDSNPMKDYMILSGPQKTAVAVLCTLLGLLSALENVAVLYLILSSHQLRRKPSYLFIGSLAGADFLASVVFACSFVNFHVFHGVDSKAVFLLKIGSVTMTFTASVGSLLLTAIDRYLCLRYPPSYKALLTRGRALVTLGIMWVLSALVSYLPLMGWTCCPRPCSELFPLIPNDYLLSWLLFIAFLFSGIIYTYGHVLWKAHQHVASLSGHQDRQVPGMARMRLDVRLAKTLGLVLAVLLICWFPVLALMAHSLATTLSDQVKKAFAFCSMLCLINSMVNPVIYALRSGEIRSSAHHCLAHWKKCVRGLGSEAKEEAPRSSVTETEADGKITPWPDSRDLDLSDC
T2 sequence (P21554 whole entry): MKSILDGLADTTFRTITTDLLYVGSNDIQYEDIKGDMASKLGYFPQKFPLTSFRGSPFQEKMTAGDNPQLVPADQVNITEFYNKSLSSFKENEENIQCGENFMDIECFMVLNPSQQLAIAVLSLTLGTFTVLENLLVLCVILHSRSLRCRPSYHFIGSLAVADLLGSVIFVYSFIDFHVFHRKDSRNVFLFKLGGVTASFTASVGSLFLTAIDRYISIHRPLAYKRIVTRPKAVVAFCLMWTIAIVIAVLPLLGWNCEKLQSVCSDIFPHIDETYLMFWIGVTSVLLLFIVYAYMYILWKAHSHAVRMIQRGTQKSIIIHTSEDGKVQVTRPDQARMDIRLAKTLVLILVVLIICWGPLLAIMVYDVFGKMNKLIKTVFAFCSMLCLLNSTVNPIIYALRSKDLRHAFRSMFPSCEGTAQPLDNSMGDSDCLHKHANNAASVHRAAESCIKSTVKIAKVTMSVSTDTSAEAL

Row | Structure (SMILES) | EC50 [1, 6] [nM] | IC50 [2] [nM] | hCB1 EC50 (cAMP ag, nM, HEK (96-well)) ([3]; cAMP agonist, HEK) | EC50 [4, 7] [nM] | IC50 [5] [nM] | EC50 [1] [nM] | hCB1 EC50 (cAMP ag, nM HEK (24-well)) ([3]; cAMP agonist, HEK, 24-well) | EC50 [4] [nM] | EC50 [3] [nM]
1 | CCCn1c(C)c(C(=O)c2cc3cc(Cl)sc3[nH]2)c2c1CCCC2 [Compound I-76] | 100 to 1000 | > 10000 | NS (“Not Significant,” which means less than 30% agonist activity when compared to the positive control) | 100 to 1000 | 100 to 1000 | – | – | – | –
2 | CCCn1c(C)c(C(=O)c2cc3ccsc3n2CCC)c2ccccc21 [Compound I-78] | – | 1000 to 10000 | NS (“Not Significant,” which means less than 30% agonist activity when compared to the positive control) | – | < 100 | < 100 | NS (“Not Significant,” which means less than 30% agonist activity when compared to the positive control) | < 100 | –
3 | CCCn1cc(C(=O)c2cc3ccsc3n2CC)c2cnccc21 [Compound I-22] | – | 1000 to 10000 | NS (“Not Significant,” which means less than 30% agonist activity when compared to the positive control) | – | 100 to 1000 | 100 to 1000 | – | < 100 | –
4 | CCn1c(C(=O)c2c(C)n(CC3CCOCC3)c3ccccc23)cc2ccsc21 [Compound I-17] | – | 100 to 1000 | – | – | < 100 | < 100 | – | < 100 | 100 to 1000
5 | CCCn1c(C(=O)c2c(C)n(C)c3ccccc23)cc2ccsc21 [Compound I-53] | 100 to 1000 | > 10000 | NS (“Not Significant,” which means less than 30% agonist activity when compared to the positive control) | 100 to 1000 | 100 to 1000 | – | – | – | –
6 | C=CCn1cc(C(=O)c2cc3ccsc3n2CC)c2cnccc21 [Compound I-21] | – | > 10000 | – | – | 100 to 1000 | 100 to 1000 | – | 1000 to 10000 | 100 to 1000
7 | CCCn1cc(C(=O)c2cc3ccsc3n2CC)c2ccncc21 [Compound I-23] | – | 1000 to 10000 | NS (“Not Significant,” which means less than 30% agonist activity when compared to the positive control) | – | < 100 | 100 to 1000 | – | < 100 | –
8 | CCCn1c(C)c(C(=O)c2cc3cc(Cl)sc3n2CCC)c2ccccc21 [Compound I-49] | – | 1000 to 10000 | NS (“Not Significant,” which means less than 30% agonist activity when compared to the positive control) | – | < 100 | < 100 | – | < 100 | –
9 | CCn1c(C(=O)c2c(C)n(CCCNS(C)(=O)=O)c3ccccc23)cc2ccsc21 [Compound I-19] | < 100 | 1000 to 10000 | NS (“Not Significant,” which means less than 30% agonist activity when compared to the positive control) | < 100 | < 100 | – | – | – | –
